# Reference: patent US20250228835A1, “PYRIDINYLOXYPYRIDINES AND RELATED COMPOUNDS AND THEIR USE IN TREATING MEDICAL CONDITIONS” (Rectify Pharmaceuticals, Inc., priority 2024, published 2025)
# Legend:
# ABCB4 WT = target: T1, ABCB4 WT (Homo sapiens, UniProt P21439); assay: ABCB4 WT assay: HiBit protein expression; type: cell-based; conditions: HEK-293 cells stably expressing HiBit-tagged ABCB4 WT; 24 h treatment; top concentration 30 μM; read-out: ABCB4 WT EC50, Emax
# T1 construct: expressed in transfected cells
# From the text: To assess activity against ABCB4, compounds were screened in an assay measuring protein expression, using cells transfected with cDNA encoding HiBit-tagged ABCB4 wild-type.
# Described here is an assay for measuring the expression of the wild type of human ABCB4 (henceforth referred to as ABCB4 WT) and the use of this assay to measure the efficacy of compounds to increase the expression of ABCB4 WT. The assay was designed to characterize the efficacy and potency of compounds to increase the expression of ABCB4 WT by calculating an Emax and EC50 value. HEK-293 cells stably expressing ABCB4 WT (HEK-293/ABCB4 WT) were used for this assay and were maintained at 37° C. (5% CO2, humidified) in Dulbecco's Modified Eagle Medium (DMEM, Gibco product #12100) supplemented with 10% fetal bovine serum (Biosera product #FB-1058/500), 1% PenStrep (HDB product #15140-122), and 0.5 mg/mL puromycin (Gibco product #A11138-03). For the assay, the HEK-293/ABCB4 WT cells were seeded in white/opaque 384-well plates (Corning product #3570) at 10,000 cells/well in 20 μl growth medium and allowed to settle for 4 hours at 37° C. (5% CO2, humidified). Compound serial dilutions are prepared in DMSO as three hundred times (333×) the final concentration and using a dilution factor of 3 using Bravo (Agilent). After the four-hour incubation period, 60 nL of DMSO solutions are transferred to the assay plate.
# Dose response curves include eleven doses with the top final concentration at 30 μM in 0.3% DMSO. Liquid handling is performed with ECHO 550 Acoustic Liquid Handler (Labcyte). After addition of compound treatment, cells are incubated for 24 hours at 37° C. (5% CO2, humidified). After the 24-hour treatment, plates are allowed to equilibrate to room temperature for 10 minutes. Using Dragonfly Automated Liquid Handler (TTP LabTech), 20 μl of HiBit lytic assay reagent (Promega, product #N3040), which is prepared according to manufacturer's instructions, is added to each well. The plates are rotated at room temperature for 2 minutes and incubated for 1 hour at 25° C. before luminescent signal is acquired using an EnVision Multimode Plate Reader (PerkinElmer).
# Results are presented below in Table 5 for ABCB4 WT.
# ABCC6 WT = target: T2, ABCC6 WT (Homo sapiens, UniProt O95255); assay: ABCC6 WT assay: HiBit protein expression; type: cell-based; conditions: HEK-293 cells transiently expressing HiBit-tagged ABCC6 WT; 24 h treatment; top concentration 20 μM; read-out: ABCC6 WT EC50, Emax
# T2 construct: expressed in transfected cells; host or cells: HEK-293 (transient, Lipofectamine 2000)
# From the text: To assess activity against ABCC6, compounds were screened in an assay measuring protein expression, using cells transfected with cDNA encoding HiBit-tagged ABCC6 wild-type.
# Described here is an assay for measuring the expression of the wild type of human ABCC6 (henceforth referred to as ABCC6 WT) and the use of this assay to measure the efficacy of compounds to increase the expression of ABCC6 WT. The assay was designed to characterize the efficacy and potency of compounds to increase the expression of ABCC6 WT by calculating an Emax and EC50 value. HEK-293 cells transiently expressing ABCC6 WT (HEK-293/ACC6 WT) were used for this assay and were cultured at 37° C. (5% CO2, humidified) in Dulbecco's Modified Eagle Medium (DMEM, Gibco product #11965-092) supplemented with 10% fetal bovine serum. For the assay, HEK-293 cells were transfected with […]/10 cm plate of cDNA encoding HiBit-tagged ABCC6 wild-type using Lipofectamine 2000 (Thermo Fisher, product #11668019). Twenty-four hours after transfection, the HEK-293/ACC6 WT cells were seeded in white/opaque 384-well plates (PerkinElmer, cat. No. 6007688) at 10,000 cells/well in 20 μl growth medium and allowed to settle for 4 hours at 37° C. (5% CO2, humidified). Compound serial dilutions are prepared in growth medium as ten times (10×) the final concentration and using a dilution factor of 2. After the four-hour incubation period, 2.2 μL of the 10× dilutions are transferred to the assay plate.
# Dose response curves include ten doses with the top final concentration at 20 μM in 0.15% DMSO. Liquid handling is performed with an Integra mini96-tip head (INTEGRA). After addition of compound treatment, cells are incubated for 24 hours at 37° C. (5% CO2, humidified). After the 24-hour treatment, plates are allowed to equilibrate for 15 minutes at room temperature. Using Integra mini-96, 20 μl of HiBit lytic assay reagent (Promega, product #N3040), which is prepared according to manufacturer's instructions, is added to each well. The plates are rotated at room temperature for 10 minutes and luminescent signal is acquired using an EnVision Multimode Plate Reader (PerkinElmer).
# Results are presented below in Table 4 for ABCC6 WT.
# T1 sequence (P21439 whole entry): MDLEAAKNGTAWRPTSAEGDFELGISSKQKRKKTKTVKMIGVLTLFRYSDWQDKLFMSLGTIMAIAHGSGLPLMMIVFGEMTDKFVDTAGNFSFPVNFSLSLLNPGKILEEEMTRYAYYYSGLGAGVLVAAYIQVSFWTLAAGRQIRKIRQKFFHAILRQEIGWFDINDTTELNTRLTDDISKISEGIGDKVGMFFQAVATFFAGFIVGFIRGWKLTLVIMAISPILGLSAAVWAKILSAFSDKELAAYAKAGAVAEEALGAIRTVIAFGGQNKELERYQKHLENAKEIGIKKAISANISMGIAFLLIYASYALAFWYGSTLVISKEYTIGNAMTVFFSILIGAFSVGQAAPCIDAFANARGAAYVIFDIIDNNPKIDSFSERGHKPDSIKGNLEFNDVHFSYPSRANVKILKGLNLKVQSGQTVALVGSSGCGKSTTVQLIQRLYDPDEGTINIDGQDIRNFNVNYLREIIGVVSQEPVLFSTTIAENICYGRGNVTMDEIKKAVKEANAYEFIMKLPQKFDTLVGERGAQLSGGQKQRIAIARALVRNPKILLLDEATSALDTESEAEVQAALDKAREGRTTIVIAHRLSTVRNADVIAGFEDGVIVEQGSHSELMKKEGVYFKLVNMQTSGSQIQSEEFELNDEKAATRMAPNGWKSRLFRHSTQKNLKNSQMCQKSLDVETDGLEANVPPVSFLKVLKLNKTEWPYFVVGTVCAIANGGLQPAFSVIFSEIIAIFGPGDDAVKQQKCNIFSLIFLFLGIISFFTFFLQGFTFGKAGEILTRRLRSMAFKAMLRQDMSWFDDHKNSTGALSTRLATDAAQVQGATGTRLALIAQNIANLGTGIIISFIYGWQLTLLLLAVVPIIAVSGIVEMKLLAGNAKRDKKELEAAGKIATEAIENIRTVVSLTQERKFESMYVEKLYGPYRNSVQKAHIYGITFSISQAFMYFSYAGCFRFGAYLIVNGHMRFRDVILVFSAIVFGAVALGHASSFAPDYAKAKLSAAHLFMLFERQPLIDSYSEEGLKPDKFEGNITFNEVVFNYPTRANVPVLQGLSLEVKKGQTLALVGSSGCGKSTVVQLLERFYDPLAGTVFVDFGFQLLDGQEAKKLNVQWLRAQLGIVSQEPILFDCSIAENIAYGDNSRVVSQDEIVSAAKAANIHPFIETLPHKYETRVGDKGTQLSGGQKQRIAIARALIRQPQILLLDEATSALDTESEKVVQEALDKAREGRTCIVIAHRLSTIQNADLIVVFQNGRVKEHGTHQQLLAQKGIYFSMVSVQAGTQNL
# T2 sequence (O95255 whole entry): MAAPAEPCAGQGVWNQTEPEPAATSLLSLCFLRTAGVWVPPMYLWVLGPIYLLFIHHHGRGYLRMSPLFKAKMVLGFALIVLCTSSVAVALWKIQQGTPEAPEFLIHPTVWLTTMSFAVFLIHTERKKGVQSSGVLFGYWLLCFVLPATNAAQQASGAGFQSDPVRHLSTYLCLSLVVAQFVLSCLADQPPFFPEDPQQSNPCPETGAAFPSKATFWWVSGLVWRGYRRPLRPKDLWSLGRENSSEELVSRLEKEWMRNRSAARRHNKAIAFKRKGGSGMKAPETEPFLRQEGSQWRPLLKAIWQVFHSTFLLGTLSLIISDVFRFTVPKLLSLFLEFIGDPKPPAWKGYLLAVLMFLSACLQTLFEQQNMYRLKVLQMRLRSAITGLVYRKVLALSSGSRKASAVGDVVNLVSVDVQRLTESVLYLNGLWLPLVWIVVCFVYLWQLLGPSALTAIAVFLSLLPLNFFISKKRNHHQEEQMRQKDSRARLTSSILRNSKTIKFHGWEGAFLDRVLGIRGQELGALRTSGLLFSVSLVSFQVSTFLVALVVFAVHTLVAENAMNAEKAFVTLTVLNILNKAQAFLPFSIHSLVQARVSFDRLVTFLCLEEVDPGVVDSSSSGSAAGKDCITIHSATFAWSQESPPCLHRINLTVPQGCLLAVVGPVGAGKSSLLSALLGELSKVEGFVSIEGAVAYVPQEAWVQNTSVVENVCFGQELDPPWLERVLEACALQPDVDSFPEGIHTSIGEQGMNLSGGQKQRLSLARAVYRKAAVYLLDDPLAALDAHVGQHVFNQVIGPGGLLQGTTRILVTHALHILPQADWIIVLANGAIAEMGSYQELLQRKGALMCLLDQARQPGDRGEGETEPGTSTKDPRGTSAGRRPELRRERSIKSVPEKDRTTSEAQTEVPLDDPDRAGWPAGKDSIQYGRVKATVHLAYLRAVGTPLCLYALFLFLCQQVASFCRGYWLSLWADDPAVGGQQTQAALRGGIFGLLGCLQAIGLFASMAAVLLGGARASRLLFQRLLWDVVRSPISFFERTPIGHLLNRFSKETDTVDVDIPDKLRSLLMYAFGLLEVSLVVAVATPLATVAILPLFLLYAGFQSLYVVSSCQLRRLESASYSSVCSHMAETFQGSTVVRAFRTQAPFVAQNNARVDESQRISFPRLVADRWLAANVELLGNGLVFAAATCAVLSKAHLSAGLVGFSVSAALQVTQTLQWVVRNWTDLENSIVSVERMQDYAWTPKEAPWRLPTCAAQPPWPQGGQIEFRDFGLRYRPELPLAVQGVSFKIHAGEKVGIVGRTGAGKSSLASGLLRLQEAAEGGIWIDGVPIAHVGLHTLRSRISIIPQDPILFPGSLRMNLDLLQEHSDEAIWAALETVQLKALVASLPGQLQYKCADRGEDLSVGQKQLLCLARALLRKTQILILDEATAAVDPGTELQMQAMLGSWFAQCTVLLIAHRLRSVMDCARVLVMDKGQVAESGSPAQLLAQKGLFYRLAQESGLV
Compound,EC50 (ABCB4 WT) [µM],EC50 (ABCC6 WT) [nM]
Cc1cc(C(F)F)nc(C2CC2)c1Oc1nc(-c2cncc(C#N)c2)ccc1N(C)S(=O)(=O)C1CC1 [Compound I-134],< 1,1000 to 10000
Cc1cc(C(F)(F)F)nc(C2CC2)c1Oc1nc(-c2cncc(C#N)c2)ccc1N(C)S(=O)(=O)C1CC1 [Compound I-139],< 1,< 1000
Cc1nc(C)c(Oc2nc(-c3cncc(Cl)c3)ccc2NS(C)(=O)=O)c(C2CC2)n1 [Compound I-164],1 to 10,< 25000
Cc1nc(C(F)(F)F)nc(C2CC2)c1Oc1nc(-c2cncc(C#N)c2)ccc1N(C)S(C)(=O)=O [Compound I-142],≥ 25,≥ 25000
Cc1cc(C(F)F)nc(C2CC2)c1Oc1nc(-c2cncc(C#N)c2)ccc1S(=O)(=O)NC1CC1 [Compound I-288],1 to 10,< 1000
Cc1cc(C2CC2)nc(C2CC2)c1Oc1nc(-c2cncc(C#N)c2)ccc1NS(C)(=O)=O [Compound I-161],< 1,< 1000
Cc1nc(C(F)(F)F)nc(C2CC2)c1Oc1nc(-c2cncc(Cl)c2)ccc1N(C)S(C)(=O)=O [Compound I-149],≥ 25,< 25000
Cc1cc(C)c(Oc2nc(-c3cccc(Cl)c3)ccc2S(=O)(=O)NC2CCOC2)c(C)c1 (stereo not shown) [Compound I-101],≥ 25,1000 to 10000
Cc1cc(C(F)(F)F)nc(C2CC2)c1Oc1nc(-c2cncc(C#N)c2)ccc1S(=N)(=O)C1CC1 (stereo not shown) [Compound I-287],< 25,≥ 25000
Cc1cc(C)c(Oc2nc(-c3cncc(C#N)c3)ccc2NS(C)(=O)=O)c(C)n1 [Compound I-5],< 1,< 1000
Cc1cc(C(F)(F)F)nc(C2CC2)c1Oc1nc(-c2cncc(Cl)c2)ccc1NS(C)(=O)=O [Compound I-158],< 1,< 1000
CCS(=O)(=O)Nc1ccc(-c2cncc(C#N)c2)nc1Oc1c(C)cc(C(F)(F)F)nc1C1CC1 [Compound I-152],< 1,< 1000
Cc1nc(C(F)F)nc(C2CC2)c1Oc1nc(-c2cncc(C#N)c2)ccc1NS(C)(=O)=O [Compound I-144],< 1,< 1000
Cc1cc(C)c(Oc2nc(-c3cncc(Cl)c3)ccc2S(=O)(=O)NC2CC2)c(C)c1 [Compound I-98],< 25,< 1000
Cc1cc(C)c(Oc2nc(-c3cncc(C#N)c3)ccc2N(C)S(=O)(=O)c2cccnc2)c(C2CC2)n1 [Compound I-136],< 1,1000 to 10000
Cc1cc(C(F)(F)F)nc(C2CC2)c1Oc1nc(-c2cncc(C#N)c2)ccc1N(C)S(C)(=O)=O [Compound I-156],≥ 25,≥ 25000
Cc1cc(C)c(Oc2nc(-c3cncc(Cl)c3)ccc2S(=O)(=O)N(C)C)c(C)c1 [Compound I-97],1 to 10,< 1000
Cc1nc(C(F)(F)F)cc(C2CC2)c1Oc1nc(-c2cncc(C#N)c2)ccc1N(C)S(C)(=O)=O [Compound I-154],< 25,< 25000
Cc1cc(C)c(Oc2nc(-c3ccc(C#N)nc3C)ccc2NS(C)(=O)=O)c(C)c1 [Compound I-6],≥ 25,< 1000
Cc1nc(C)c(Oc2nc(-c3cncc(C#N)c3)ccc2N(C)S(C)(=O)=O)c(C2CC2)n1 [Compound I-157],< 25,≥ 25000
Cc1cc(C(F)F)nc(C2CC2)c1Oc1nc(-c2cncc(C#N)c2)ccc1N(C)S(C)(=O)=O [Compound I-135],< 1,1000 to 10000
Cc1cc(C2CC2)nc(C2CC2)c1Oc1nc(-c2cncc(C#N)c2)ccc1N(C)S(C)(=O)=O [Compound I-146],≥ 25,≥ 25000
Cc1cc(C)c(Oc2nc(-c3cncc(Cl)c3)ccc2S(N)(=O)=O)c(C)c1 [Compound I-100],≥ 25,< 1000
Cc1nc(C2CC2)cc(C2CC2)c1Oc1nc(-c2cncc(C#N)c2)ccc1NS(C)(=O)=O [Compound I-162],≥ 25,< 1000
Cc1cc(C(F)(F)F)nc(C2CC2)c1Oc1nc(-c2cncc(C#N)c2)ccc1NS(=O)(=O)C1CC1 [Compound I-140],< 1,< 1000
Cc1cc(C(F)(F)F)nc(C2CC2)c1Oc1nc(-c2cncc(C#N)c2)ccc1N=S(C)(C)=O [Compound I-286],≥ 25,< 1000
Cc1cc(C)c(Oc2nc(-c3cncc(Cl)c3)ccc2S(C)(=O)=O)c(C)c1 [Compound I-104],1 to 10,1000 to 10000

# Second part, the molecule after the results:
EC50 (ABCB4 WT) [µM],EC50 (ABCC6 WT) [nM],Compound
< 25,1000 to 10000,CNS(=O)(=O)c1ccc(-c2cncc(C#N)c2)nc1Oc1nc(C2CC2)sc1C [Compound I-308]
≥ 25,1000 to 10000,CNS(=O)(=O)c1ccc(-c2cncc(C#N)c2)nc1Oc1c(C)cc(C2CC2)nc1C1CC1 [Compound I-298]
≥ 25,≥ 25000,Cc1cc(C(F)(F)F)nc(C2CC2)c1Oc1nc(-c2cncc(C#N)c2)ccc1S(=O)(=O)N1CCOCC1 [Compound I-290]
≥ 25,< 1000,Cc1cc(C(F)(F)F)nc(C2CC2)c1Oc1nc(-c2cncc(C#N)c2)ccc1S(=O)(=O)NC1COC1 [Compound I-305]
1 to 10,1000 to 10000,CNS(=O)(=O)c1ccc(-c2cncc(C#N)c2)nc1Oc1c(C)nc(C(F)F)nc1C1CC1 [Compound I-313]
1 to 10,1000 to 10000,Cc1cc(C(F)(F)F)nc(C2CC2)c1Oc1nc(-c2cncc(C#N)c2)ccc1S(=N)(=O)c1cnccn1 (stereo not shown) [Compound I-297]
≥ 25,1000 to 10000,CNS(=O)(=O)c1ccc(-c2cncc(C#N)c2)nc1Oc1c(C)nc(C(F)(F)F)nc1C1CC1 [Compound I-315]
< 1,1000 to 10000,Cc1nc(C(F)(F)F)nc(C2CC2)c1Oc1nc(-c2cncc(C#N)c2)ccc1S(=O)(=O)Nc1cnn(C)c1 [Compound I-309]
≥ 25,< 1000,Cc1cc(C(F)(F)F)nc(C2CC2)c1Oc1nc(-c2cccc(C#N)c2)ccc1S(=N)(=O)C1CC1 (stereo not shown) [Compound I-295]
10 to 25,< 1000,CNS(=O)(=O)c1ccc(-c2cncc(C#N)c2)nc1Oc1c(C)cc(C(F)F)nc1C1CC1 [Compound I-289]
1 to 10,< 1000,Cc1nc(C(F)(F)F)nc(C2CC2)c1Oc1nc(-c2cncc(C#N)c2)ccc1S(=O)(=O)NC1CC1 [Compound I-292]
10 to 25,10000 to 25000,Cc1cc(C(F)(F)F)nc(C2CC2)c1Oc1nc(-c2cncc(C#N)c2)ccc1S(=N)(=O)c1ccccn1 (stereo not shown) [Compound I-302]
≥ 25,< 25000,CNS(=O)(=O)c1ccc(-c2cncc(C#N)c2)nc1Oc1nc(C)sc1C1CC1 [Compound I-312]
1 to 10,1000 to 10000,Cc1cc(C(F)(F)F)nc(C2CC2)c1Oc1nc(-c2cncc(C#N)c2)ccc1S(=N)(=O)c1cccnc1 (stereo not shown) [Compound I-304]
